Measured values taken from patent publication US6403594B1, “Benzopyran derivatives” (Recordati, S.A. Chemical and Pharmaceutical Company, priority 1999, dated 2002).

Tests used:
[1] = target: T1, α1b-adrenoceptor (recombinant) (Homo sapiens, UniProt P35368); experiment: Radioligand binding, cloned α1b-adrenoceptor ([3H]prazosin); conditions: read-out: Affinity for recombinant α1b-adrenoceptor, cloned receptors (Ki)
T1 construct: expressed in transfected cells
T1 sequence (P35368 1-520): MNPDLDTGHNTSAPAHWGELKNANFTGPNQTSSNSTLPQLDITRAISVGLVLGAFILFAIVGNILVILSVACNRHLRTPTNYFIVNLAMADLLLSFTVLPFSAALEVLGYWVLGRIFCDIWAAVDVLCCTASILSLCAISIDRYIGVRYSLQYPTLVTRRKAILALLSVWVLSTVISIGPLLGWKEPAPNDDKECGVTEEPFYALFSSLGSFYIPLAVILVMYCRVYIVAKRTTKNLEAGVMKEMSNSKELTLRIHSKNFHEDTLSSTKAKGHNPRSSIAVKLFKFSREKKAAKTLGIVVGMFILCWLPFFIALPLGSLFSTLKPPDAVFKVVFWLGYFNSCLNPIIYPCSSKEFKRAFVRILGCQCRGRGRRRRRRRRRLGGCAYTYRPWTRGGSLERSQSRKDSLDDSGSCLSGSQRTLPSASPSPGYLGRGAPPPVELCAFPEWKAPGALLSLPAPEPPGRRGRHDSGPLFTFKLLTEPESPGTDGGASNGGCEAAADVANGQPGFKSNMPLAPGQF

[2] = target: T2, α1L adrenoceptor (Oryctolagus cuniculus, UniProt O02824); experiment: Functional antagonism of noradrenaline-induced contractions of rabbit aorta pretreated with chloroethylclonidine; format: biochemical; conditions: NA-induced contractions of rabbit aorta pretreated with chloroethylclonidine
T2 sequence (O02824 1-466): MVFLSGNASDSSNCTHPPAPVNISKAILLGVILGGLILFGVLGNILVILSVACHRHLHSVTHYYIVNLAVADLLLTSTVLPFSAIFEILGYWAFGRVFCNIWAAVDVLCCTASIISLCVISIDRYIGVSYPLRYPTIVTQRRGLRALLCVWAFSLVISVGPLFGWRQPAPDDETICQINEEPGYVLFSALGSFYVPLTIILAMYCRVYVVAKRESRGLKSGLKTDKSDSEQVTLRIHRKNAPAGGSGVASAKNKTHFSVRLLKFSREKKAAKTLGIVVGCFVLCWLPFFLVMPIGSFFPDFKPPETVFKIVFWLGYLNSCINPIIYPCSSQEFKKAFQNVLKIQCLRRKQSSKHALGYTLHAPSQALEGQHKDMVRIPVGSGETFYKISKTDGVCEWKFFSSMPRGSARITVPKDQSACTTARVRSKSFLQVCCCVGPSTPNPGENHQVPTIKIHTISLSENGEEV
Experimental: Adult male New Zealand rabbits were sacrificed by cervical dislocation. The aorta was removed, placed in Krebs-Henseleit buffer and dissected free of adhering tissue. […] Desmethylimipramine (0.1 μm) and corticosterone (1 μM) to block neuronal and extraneuronal uptake of NA, (±)-propranol (1 μM) to block β adrenoceptors and yohimbine (0.1 μM) to block α2 adrenoceptors, were added to the buffer.
The preparations were allowed to equilibrate for 60 minutes and then primed every thirty minutes with 10 μM NA for three times. The aortic rings were then incubated with the alkylating agent chloroethylclonidine (5×10^−5 M) for 30 minutes and then washed extensively three times (in 0.5 hours) before constructing the NA-concentration/response curve. After washout of NA and re-equilibration of the tissue (45 minutes), the drug to be tested was added and, after 30 minutes, a second NA-cumulative-concentration/response curve constructed.
Each antagonist concentration was tested using 2-3 aortic rings from different rabbits.
Dose ratios (i.e., the ratio between the concentrations of NA required to produce half-maximal response in the presence and in the absence of the test antagonist) were calculated for each concentration of the compounds. The logarithm of these dose ratio-1 was plotted against the logarithm of the compound concentrations (Schild plot) to evaluate the affinity constant Kb.
When only one or two concentrations of the test compounds were utilised, the apparent Kb value was calculated using the formula: Kb=[B]/(DOSE RATIO-1), where B is the antagonist concentration.

[3] = test system: diastolic blood pressure; experiment: Lowering of diastolic blood pressure in anaesthetised dogs after i.v. administration; format: in vivo, dog
Experimental: The experiments were performed according to the method of Imagawa J. et al., J. Pharmacol. Methods 22: 103-111, 1989, with substantial modifications, as follows: adult male beagle dogs, weighing 8-10 kg, were anaesthetised with pentobarbital sodium (30 mg/kg i.v. and 2 mg/kg/h i.v.), intubated and spontaneously ventilated with room air. In order to monitor systemic blood pressure (BP), a polyethylene (PE) catheter was introduced into the aortic arch through the left femoral artery. A collateral of the left femoral vein was cannulated for infusion of anaesthetic, and the right femoral vein was cannulated for administration of compounds. For intra-arterial (i.a.) injection of noradrenaline (NA), a PE catheter was introduced into the lower portion of the abdominal aorta via the right external iliac artery. Through such procedure, NA was selectively distributed to the lower urinary tract. A paramedian vertical suprapubic incision extending from the base of the pelvis to the mid-abdominal region was made and the bladder and prostate were exposed. The bladder was manually emptied with a syringe. Prostatic urethral pressure was monitored with a Mikro-tip catheter (5F) introduced into the bladder via the external urethral meatus, and withdrawn until the pressure transducer was positioned in the prostatic region of the urethra. A ligature was secured between the neck of the bladder and urethra to isolate the response of the latter and to avoid any interaction with the bladder. Another ligature was put around the Mikro-tip catheter at the external meatus, to secure the catheter itself. After a stabilising period following the surgical procedure (30 minutes), in which arterial and prostatic urethral pressure were continuously monitored as basal values, i.a. administration of NA was made at intervals of 20 minutes. The doses of NA chosen were such to produce an increase of at least 100% in urethral pressure. The test compounds were administered i.v. in a cumulative manner with intervals of 15-20 minutes between administrations. I.a. injections of NA were repeated 5 minutes after every dosing of test compound with intervals of about 10 minutes between stimulations. In order to compare the effects of the administered compound, dose/response curves (log dose transformation) were constructed by computing, at the peak effect, the percent decrease in diastolic blood pressure and the percent inhibition of the increase in urethral pressure induced by NA.

SMILES: CCOC(=O)c1oc2c(C(=O)NCCCN3CCN(c4cc(Cl)ccc4OC)CC3)cccc2c(=O)c1C [Example 4, 2-Ethoxycarbonyl-8-{3-[4-(5-chloro-2-methoxyphenyl)-1-piperazinyl]-propylcarbamoyl}-3-methyl-4-oxo-4H-1-benzopyran]
- Ki [1]: 0.08 nM
- Functional affinity for the α1L adrenoceptor subtype, pKb [2]: 8.47
- DBP ED25: active dose lowering diastolic blood pressure by 25% [3]: 0.1633 mg/kg

SMILES: COc1ccc(Cl)cc1N1CCN(CCCNC(=O)c2cccc3c(=O)c(C)c(C(N)=O)oc23)CC1 [Example 1, 2-Carbamoyl-8-{3-[4-(5-chloro-2-methoxyphenyl)-1-piperazinyl]-propylcarbamoyl}-3-methyl-4-oxo-4H-1-benzopyran]
- Ki [1]: 2.62 nM
- Functional affinity for the α1L adrenoceptor subtype, pKb [2]: 8.27
- DBP ED25: active dose lowering diastolic blood pressure by 25% [3]: 2.769 mg/kg
